Experimental findings from patent US20250154145A1, “OXER1 ANTAGONISTS AND USES THEREOF” (Fairhaven Pharmaceuticals Ins., priority 2021, published 2025) are described below.

The subject of the experiment is neutrophils. In words: Neutrophil calcium flux assay (5-OXO-ETE-stimulated, Indo-1 fluorescence). The experiment is classed as cell-based. The note with it: 5-OXO-ETE-stimulated calcium flux. The method, then: After isolation, neutrophils were resuspended in PBS without calcium and Magnesium (PBS −/−) at a concentration of 5×10^6 cells/ml. 2ul of Indo-1 (1 mM) were added per ml of cells. After incubation at 37° C. for 30 minutes, cells were washed twice in PBS −/− and resuspended at 5×10^6 cells/ml in assay buffer (HBSS 1× with calcium and magnesium and […]). In a 96-well Black optical clear bottom plate 100 μL of neutrophil were dispensed to each well. After incubation at 37° C. for 5 minutes, 50 μL of assay buffer or 3× antagonist were added and incubated for 5 min in a Tecan Spark plate reader (Tecan, Morrisville, NC). Baseline was measured for 30 sec (wavelength setup: excitation: 331 nm and emission:410 nm). When baseline is stable, 50p of 5-OXO-ETE at 200 nM (4×) or HBSS was added to appropriate wells. Fluorescence was measured every 5 seconds for 30 cycles. Results are expressed as Net fluorescence (FLU minus Background and injection peak). All data were analyzed using GraphPad Prism version 9 for Windows (GraphPad, San Diego, CA).

Each structure is given as a SMILES string. pIC50: −log10 of the molar value.

The pIC50 is −log10 of the IC50, conventionally taken in molar units. As to `Cn1c(CCCCOCc2cccc(Cl)c2)c(C(=O)N2CC[C@H](C(=O)O)C2)c2cc(C(F)(F)F)ccc21` [Compound I-187], the pIC50 (Neutrophil) was 6.52 to 7.00.
Turning to `C[C@H](CC(=O)O)CC(=O)c1c(CCOCCCC#CC2CC(F)(F)C2)n(C)c2ccc(Cl)cc12` [Compound I-326], under “Neutrophil”, the pIC50 was above 7.00.
As for `C[C@H](CC(=O)O)CC(=O)c1c(CCCCCCC#CC2CC(F)(F)C2)n(C)c2ccc(Cl)cc12` [Compound I-319], the pIC50 (Neutrophil) is above 7.00.
With `C[C@H](CC(=O)O)CC(=O)c1c(CCCCCNc2cnccn2)n(C)c2ccc(Cl)cc12` [Compound I-129], for the setting “Neutrophil”, the pIC50 was below 6.52.
With `CC(CC(=O)O)CC(=O)c1c(CCCCOCc2cccc(C#N)c2)n(C)c2c(F)cc(C#N)cc12` (stereo not drawn) [Compound I-414], under “Neutrophil”, the pIC50 is below 6.52.
Turning to `Cn1c(CCCCOCc2cccc(Cl)c2)c(C(=O)N2CC[C@H](c3nnn[nH]3)C2)c2cc(C#N)cnc21` [Compound I-224], the pIC50 (Neutrophil) is 6.52 to 7.00.
Regarding `CCC#CCCCCCCc1c(C(=O)C[C@H](C)CC(=O)O)c2cc(Cl)ccc2n1C` [Compound I-116], where the note is “Neutrophil”, the pIC50 is above 7.00.
Regarding `CC(CC(=O)O)CC(=O)c1c2cc(C#N)cnc2n(C)c1[C@H]1CC[C@H](OCc2cccc(Cl)c2)CC1` (stereo partly drawn) [Compound I-367], the pIC50 (Neutrophil) is below 6.52.
For the compound `C[C@@H](CC(=O)NO)CC(=O)c1c(CCCCCCc2cccc(Cl)c2)n(C)c2ccc(Cl)cc12` [Compound I-18], the pIC50 (Neutrophil) is below 6.52.
On to `CCCCCCc1cc2ccc(Cl)cc2n1C(=O)C[C@H](C)CC(=O)O` [Compound I-12], for which the negative logarithm of the IC50 (pIC50) (Neutrophil) was below 6.52.
Take `C[C@H](CC(=O)O)CC(=O)c1c(CCCOCCc2cccc(Cl)c2)n(C)c2ccc(Cl)cc12` [Compound I-61]: under “Neutrophil”, the pIC50 is above 7.00.
Consider `C[C@H](CC(=O)O)NC(=O)c1c(CCCCCCc2cccc(Cl)c2)n(C)c2ccc(Cl)cc12` [Compound I-237], for which the pIC50 (Neutrophil) is below 6.52.
As to `CC(CC(=O)O)CC(=O)c1c(CCCCOCc2cc(C#N)ccn2)n(C)c2ncc(Cl)cc12` (stereo not drawn) [Compound I-444], the pIC50 (Neutrophil) is below 6.52.
As to `COC(=O)C[C@@H](C)CC(=O)c1c(CCCCOCc2ccccc2)n(C)c2ncc(C#N)cc12` [Compound I-449], the pIC50 (Neutrophil) was below 6.52.
For the compound `C[C@H](CC(=O)O)CC(=O)c1c(CCOCCCc2cccc(Cl)c2)n(C)c2ccc(Cl)cc12` [Compound I-62], where the note is “Neutrophil”, the pIC50 was above 7.00.
The same measure, in the same setting: the result for `CC(CC(=O)O)CC(=O)c1c(CCCCCCC#CC2CC(F)(F)C2)n(C)c2ccc(Cl)cc12` (stereo not drawn) [Compound I-278] reads above 7.00; that for `CC(CC(=O)O)CC(=O)c1c(CCCCCCc2cccc(Cl)c2)n(CCN(C)C)c2ncc(C#N)cc12` (stereo not drawn) [Compound I-281], below 6.52; that for `C[C@@H](CC(=O)O)CC(=O)c1c(CCCCCOCc2ccccc2)n(C)c2ncc(C#N)cc12` [Compound I-423], below 6.52.
For the compound `C[C@H](CC(=O)O)CC(=O)c1c(CCCCOCc2cccc(F)c2)n(C)c2ncc(Cl)cc12` [Compound I-100], for the setting “Neutrophil”, the pIC50 is 6.52 to 7.00.
For the compound `C[C@H](CC(=O)O)CC(=O)c1c(CCCCCCc2cccc(Cl)c2)n(C)c2ccc(OC(F)(F)F)cc12` [Compound I-97], the pIC50 (Neutrophil) is above 7.00.
With `C[C@H](CC(=O)O)CC(=O)c1c(CCCCCCc2ccncc2)n(C)c2ccc(Cl)cc12` [Compound I-55], the pIC50 (Neutrophil) was above 7.00.
Turning to `C[C@@H](CC(=O)c1c(CCCCCCc2cccc(Cl)c2)n(C)c2ncc(Cl)cc12)Cc1nnn[nH]1` [Compound I-84], the pIC50 (Neutrophil) is above 7.00.
For `CC(CNC(=O)c1c(CCCCCCc2cccc(Cl)c2)n(C)c2ccc(Cl)cc12)C(=O)O` (stereo not drawn) [Compound I-241], the pIC50 (Neutrophil) was below 6.52.
`[2H]C([2H])([2H])n1c(CCCCOCc2ccccc2)c(C(=O)CC(C)CC(=O)O)c2cc(C#N)cnc21` (stereo not drawn) [Compound I-420]: the pIC50 (Neutrophil) was above 7.00.
Consider `C[C@H](CC(=O)O)CC(=O)c1c(CCOCCNc2cccnc2)n(C)c2ccc(Cl)cc12` [Compound I-137], for which the pIC50 (Neutrophil) was below 6.52.
Consider `CC(CC(=O)O)CC(=O)c1c(CCCCSCc2ccccc2)n(C)c2ncc(C#N)cc12` (stereo not drawn) [Compound I-426], for which the pIC50 (Neutrophil) is below 6.52.
In the case of `C[C@H](CC(=O)O)CC(=O)c1c(CCCCOCc2cccc(OC(F)(F)F)c2)n(C)c2ncc(C#N)cc12` [Compound I-389], the pIC50 (Neutrophil) is above 7.00.
As to `C[C@@H](CC(=O)O)CC(=O)c1c(CCCCOCc2cccc(OC(F)(F)F)c2)n(C)c2ncc(C#N)cc12` [Compound I-390], the pIC50 (Neutrophil) was below 6.52.
Turning to `C[C@H](CC(=O)O)CC(=O)c1c(CCCCOCc2cccc(C#N)c2)n(C)c2cc(F)ccc12` [Compound I-413], the pIC50 (Neutrophil) was above 7.00.
Regarding `CC(CC(=O)O)CC(=O)c1c(CCCCCCC=C=CC(F)(F)F)n(C)c2ccc(Cl)cc12` (stereo not drawn) [Compound I-304], where the note is “Neutrophil”, the pIC50 was below 6.52.
Regarding `Cn1c(CCCCOCc2cccc(Cl)c2)c(C(=O)N2CC[C@H](c3nnn[nH]3)C2)c2cc(C(F)(F)F)cnc21` [Compound I-184], the pIC50 (Neutrophil) was below 6.52.
As to `C[C@@H](CC(=O)O)CC(=O)c1c(CCCCO[C@@H](C)c2ccccc2)n(C)c2ncc(C#N)cc12` [Compound I-431], the pIC50 (Neutrophil) was below 6.52.
`C[C@H](CC(=O)O)CC(=O)c1c(CCCCC(=O)Nc2cc(Cl)ccc2O)n(C)c2ccc(Cl)cc12` [Compound I-146]: under “Neutrophil”, the pIC50 was 6.52 to 7.00.
On the same count and under the same terms, the result for `C[C@H](CC(=O)O)CC(=O)c1c(CCCCOCc2cccc(C#N)c2)n(C)c2ncc(C#N)cc12` [Compound I-383] reads above 7.00; that for `C[C@@H](CC(=O)O)CC(=O)c1c(CCCCCCc2cncs2)n(C)c2ncc(C#N)cc12` [Compound I-372], below 6.52.
For `COc1cnc2c(c1)c(C(=O)CC(C)CC(=O)O)c(CCCCOCc1ccccc1)n2C` (stereo not drawn) [Compound I-103], for the setting “Neutrophil”, the pIC50 is below 6.52.
Turning to `CC(CC(=O)O)CC(=O)c1c2cc(C#N)cnc2n(C)c1[C@H]1CC[C@@H](COCc2cccc(Cl)c2)CC1` (stereo partly drawn) [Compound I-400], the pIC50 (Neutrophil) is below 6.52.
For the compound `C[C@H](CC(=O)O)CC(=O)c1c(CCCCCOc2ncccn2)n(C)c2ccc(Cl)cc12` [Compound I-130], the pIC50 (Neutrophil) was below 6.52.
On to `Cn1c(CCCCCCCC#CC2CC(F)(F)C2)c(C(=O)N2CC[C@H](c3nnn[nH]3)C2)c2cc(C#N)cnc21` [Compound I-358], for which the pIC50 (Neutrophil) is below 6.52.
Take `Cn1c(CCCCOCc2cccc(Cl)c2)c(C(=O)N2CC[C@H](C(=O)O)C2)c2cnccc21` [Compound I-442]: the pIC50 (Neutrophil) is below 6.52.
Regarding `CC(CC(=O)O)CC(=O)c1c(CCCCOCc2cccc(C#N)c2)n(C)c2cccnc12` (stereo not drawn) [Compound I-398], the pIC50 (Neutrophil) was below 6.52.
On the same count and under the same terms, the result for `C[C@@H](CC(=O)O)CC(=O)c1c(CCCCOCc2cccc(C#N)c2)n(C)c2cnccc12` [Compound I-395] reads below 6.52; that for `CC(CC(=O)O)CC(=O)c1c(CCCCCCCC#CC2CC(F)(F)C2)n(C)c2ncc(Cl)cc12` (stereo not drawn) [Compound I-334], below 6.52.
In the case of `Cn1cc(-c2ccccc2Cl)c(C(=O)N2CC[C@H](C(=O)O)C2)c1CCCCOCc1cccc(Cl)c1` [Compound I-166], the pIC50 (Neutrophil) was below 6.52.
On the same count and under the same terms, the result for `COc1cc(COCCCCc2c(C(=O)CC(C)CC(=O)O)c3cc(Cl)cnc3n2C)ccn1` (stereo not drawn) [Compound I-446] reads below 6.52; that for `CC(CC(=O)O)CC(=O)c1c(CCCCOCc2cccc(Cl)c2)n(CCO)c2ncc(Cl)cc12` (stereo not drawn) [Compound I-378], below 6.52.
As to `Cc1ccccc1COCCCCc1c(C(=O)CC(C)CC(=O)O)c2cc(C#N)cnc2n1C` (stereo not drawn) [Compound I-450], the pIC50 (Neutrophil) is below 6.52.
On to `C[C@H](CC(=O)O)CC(=O)c1c(CCCCC(=O)Nc2cccc(Cl)c2)n(C)c2ccc(Cl)cc12` [Compound I-80], for which, for the setting “Neutrophil”, the pIC50 is below 6.52.
As to `CC(=O)Nc1cccc(C(O)CCCCCc2c(C(=O)CC(C)CC(=O)O)c3cc(C#N)cnc3n2C)c1` (stereo not drawn) [Compound I-312], the pIC50 (Neutrophil) was below 6.52.
Turning to `Cn1c(CCCCCC#CC2CC(F)(F)C2)c(C(=O)N2CC[C@H](C(=O)O)C2)c2cc(C#N)cnc21` [Compound I-343], the pIC50 (Neutrophil) is below 6.52.
Regarding `C[C@@H]1CN(C(=O)c2c(CCCCCCC#CC3CC(F)(F)C3)n(C)c3ncc(C#N)cc23)C[C@H]1C(=O)O` [Compound I-347], the pIC50 (Neutrophil) is below 6.52.
`Cn1c(-c2ccccc2Cl)cc(C(=O)N2CC[C@H](C(=O)O)C2)c1CCCCOCc1cccc(Cl)c1` [Compound I-171]: the pIC50 (Neutrophil) was below 6.52.
Still for that read-out and setting: the result for `CC(CC(=O)O)CC(=O)c1c(CCCCOCc2cccc(Cl)c2)n(C[C@@H](O)CO)c2ncc(Cl)cc12` (stereo partly drawn) [Compound I-376] reads below 6.52; that for `C[C@@H](CC(=O)O)CC(=O)c1c(CCCCOCc2ccc(F)cc2)n(C)c2ncc(C#N)cc12` [Compound I-369], below 6.52.
With `CC(CC(=O)O)CC(=O)c1c(CCCCCC(O)c2cccc(C(=O)N(C)C)c2)n(C)c2ncc(C#N)cc12` (single isomer, unassigned) [Compound I-315], the pIC50 is below 6.52.
Consider `CC(CC(=O)O)CC(=O)c1c(CCCCCCc2cccc(Cl)c2)n(C[C@@H](O)CO)c2ncc(C(N)=O)cc12` (stereo partly drawn) [Compound I-283], for which the pIC50 (Neutrophil) was 6.52 to 7.00.
Same read-out and setting: the result for `C[C@H](CC(=O)O)CC(=O)c1c(CCCCCC#CC2CC(F)(F)C2)n(C)c2ccc(Cl)cc12` [Compound I-330] reads below 6.52.
Turning to `CC(CC(=O)O)CC(=O)c1c(CCCCOCc2ccc(F)cc2)n(C)c2ncc(C#N)cc12` (stereo not drawn) [Compound I-297], the pIC50 (Neutrophil) is above 7.00.
Turning to `Cn1c(CCCOCCc2cccc(Cl)c2)c(C(=O)N2CC[C@H](C(=O)O)C2)c2cc(Cl)cnc21` [Compound I-174], the negative-log IC50 (pIC50) (Neutrophil) is below 6.52.
On the same count and under the same terms, the result for `Cn1c(CCCCCCc2cccc(Cl)c2)c(C(=O)N2CC[C@H](c3nnn[nH]3)C2)c2cc(Cl)cnc21` [Compound I-149] reads above 7.00.
